From patent publication US11845984B2, “Methods for obtaining and correcting biological sequence information” (CYGNUS BIOSCIENCES (BEIJING) CO., LTD., priority 2015, dated 2023)

Assay: Spectral (optical) properties of fluorophores
Assay type: physicochemical
Method: Although Me-FAM has similar maximum emission wavelength as TG, the extinction coefficient and quantum yield of Me-FAM are much lower (FIG. 8). At the same time, the broad emission spectrum of Me-FAM greatly overlapped with other fluorophores like Me-HCF, which makes it inapplicable for multi-color sequencing application in future. Instead, the strong fluorescence and narrower spectrum of TG will tackle the problem more easily.
First, the spectrums of TG-dA4P were measured at room temperature. For emission measurement: set excitation wavelength at 460 nm, scan 480 to 600 nm for emission; for absorption measurement: scan 310 to 550 nm. Then CIP and PDE were added and spectrum was recorded sequentially at the same condition.

Question: With `Cc1ccccc1-c1c2ccc(=O)cc-2oc2cc(O)ccc12` [TG, Tokyo Green] as the molecule, how does the Emission max read?
Answer: The Emission max was 513 nm.

Question: What about the Excitation max of the same molecule?
Answer: The Excitation max was 490 nm.

Question: And the Extinction coefficient?
Answer: The Extinction coefficient was 8 × 10^4.

Question: What about the “Quantum Yield” value of the same molecule?
Answer: The value was 82%.

Question: And the fluorescence quantum yield (at 490 nm)?
Answer: Its fluorescence quantum yield is 0.82.
